Patent US20160244802A1, “Protein Demethylases Comprising a JMJC Domain” (The University of North Carolina at Chapel Hill, priority 2005, published 2016)

What was measured:
[1] = system: PSA enhancer and NKX3.1 gene; assay: ChIP assay in LNCaP cells; type: cell-based; settings: 50 nM, 1 hour
Experimental: (§1) Recombinant JMJD1A was mixed with in vitro translated […] AR in the absence or presence of R1881 (100 nM). After immunoprecipitation with anti-JHDM2A antibody, AR was detected by autoradiography. […] LNCaP cells were cultured in charcoal-stripped serum medium for three days and then treated without or with R1881 (50 nM) for 1 hour before being processed for ChIP analysis. […] LNCaP cells were transfected with a scramble (siCON), siJHDM2A or siLSD1 as indicated. Tubulin served as a loading control. […] The cells were treated as in FIG. 14B except the cells were collected for RNA isolation 8 hours after the R1881 treatment. […] The LNCaP cells were treated with siJHDM2A or siCON for three days and then 50 nM R1881 for 1 hour before processed for ChIP assays using antibodies as indicated.
For ChIP assay in LNCaP cells, the cells were cultured in charcoal-stripped serum medium for three days before treatment with R1881 (50 nM) for 1 hour. The ChIP assay was performed essentially as previously described (Yoon, et al. (2005) Mol. Cell Biol. 25:324-335). Primers for RT-PCR analysis of the PSA mRNA were 5′-GCCCACCCAGGAGCCAGCACT-3′ (SEQ ID NO:27) and 5′-GGCCCCCAGAATCACCCGAGCAG-3′ (SEQ ID NO:28).

[2] = system: AR target genes PSA, NKX3.1 and TMPRSS22; assay: Quantitative RT-PCR of AR target genes in LNCaP cells; type: cell-based; settings: 50 nM, 8 hours
Experimental: as §1
For ChIP assay in LNCaP cells, the cells were cultured in charcoal-stripped serum medium for three days before treatment with R1881 (50 nM) for 1 hour. […]
To directly test and compare the role of JHDM2A and LSD1 in hormone-dependent transcriptional activation, we used siRNA to knockdown JHDM2A and LSD1 in LNCaP cells (FIG. 14C). We then evaluated the effects of JHDM2A or LSD1 knockdown on the hormone induced activation of three AR target genes, PSA, NKX3.1 and TMPRSS22, by quantitative RT-PCR. […]

[3] = system: modified histone H3 peptide substrates (H3K4 me3, me2, me1); assay: Histone demethylase assay with modified histone H3 peptide substrates, mass spectrometry; type: biochemical

Molecule	binding of the AR to the PSA enhancer [1]	transcription from AR target genes [2]	removal of the me1 modification state ([3]; H3K4me1 peptide, in vitro)	demethylation of the modified substrate ([3]; H3K4me3 and me2 peptides, recombinant Flag-RBP2)
C[C@]1(O)CC[C@H]2[C@@H]3CCC4=CC(=O)CCC4=C3C=C[C@@]21C [R1881]	strong binding	robustly activated transcription		
RBP2: Flag-tagged JmjC domain H3K4 demethylase expressed in SF9 cells by baculovirus, affinity purified			failed to catalyze removal	80-90%
